Values of other authors, collected in US8377956B2, “Use of (3R)-4-{[(1S)-2-methyl-1-(2-methylpropanoyloxy)propoxy]carbonylamino}-3-(4-chlorophenyl) butanoic acid for treating urinary incontinence” (XenoPort, Inc., priority 2010, dated 2013).

Test system: patients with unstable bladder syndrome
Conditions: 5 mg four times per day

For `NCC(CC(=O)O)c1ccc(Cl)cc1` (racemic) [baclofen, (±)-4-Amino-3-(4-chlorophenyl)butanoic acid], the “diurnal and nocturnal frequency of micturition” value is given as “significantly improve” and the severity of incontinence is given as “significantly improve”.
